# Test results reported in patent US5670527A, “Pyridyl imidazole compounds and compositions” (SmithKline Beecham Corporation, priority 1995, dated 1997).
# Tested on: human PGHS-2 protein expression in LPS stimulated human monocytes
# Assay: Prostoglandin endoperoxide synthase-2 (PGHS-2) assay
# Format: cell-based
# Settings: rank order potency similar to that for inhibiting cytokine production
# Method: The followiong assay describes a method for determining the inhibitory effects of compounds of Formula (I) on human PGHS-2 protein expression in LPS stimulated human monocytes
# Human peripheal blood monocytes were isolated from buffy coats by centrifugation through Ficoll and Percoll gradients. Cells were seeded at 2×10^6 /well in 24 well plates and allowed to adhere for 1 hour in RPMI supplemented with 1% human AB serum, 20 mM L-glutamine, Penicillin-Streptomycin and 10 mM HEPES. Compounds were added at various concentrations and incubated at 37° C. for 10 minutes. LPS was added at 50 ng/well (to induce enzyme expression) and incubated overnight at 37° C. The supernatant was removed and cells washed once in cold PBS. The cells were lysed in 100 μl of cold lysis buffer(50 mM Tris/HCl pH 7.5, 150 mM NaCl, 1% NP40, 0.5% sodium deoxycholate, 0.1% SDS, 300 ug/ml DNAse, 0.1% TRITON X-100, 1 mM PMSF, 1 mM leupeptin, 1 mM pepstatin). The lysate was centrifuged (10;000×g for 10 min. at 4° C.) to remove debris and the soluble fraction was subjected to SDS PAGE. analysis (12% gel). Protein separated on the gel were transferred onto nitrocellulose membrane by electrophoretic means for 2 hours at 60 volts. The membrane was pretreated for one hour in PBS/0.1% Tween 20 with 5% non-fat dry milk. After washing 3 times in PBS/Tween buffer, the membrane was incubated with a 1:2000 dilution of a monospecific antiserum to PGHS-2 or a 1:1000 dilution of an antiserum to PGHs-1 in PBS/Tween with 1% BSA for one hour with continuous shaking. […] The membrane was then washed 3× in PBS/Tween and the ECL immunodetection system (Amersham) was used to detect the level of expression of prostaglandin endoperoxide synthases-2.
row,SMILES,inhibition of LPS induced PGHS-2 protein expression
1,"Fc1ccc(-c2nc3n(c2-c2ccncc2)CCS3)cc1 [6-(4-Fluorophenyl)-2,3-dihydro-5-(4-pyridinyl)imidazo [2,1-b]thiazole]",active
2,"Fc1ccc(-c2ncn(CCCN3CCOCC3)c2-c2ccncc2)cc1 [Example 1, 1-[3-(4-Morpholinyl)propyl]-4-(4-fluorophenyl)-5-(4-pyridyl)imidazole]",active
3,C[C@@H]1C[C@H]2[C@@H]3CCC4=CC(=O)C=C[C@]4(C)[C@@]3(F)[C@@H](O)C[C@]2(C)[C@@]1(O)C(=O)CO [Dexamethasone],active

# Same assay, conditions: up to 10 uM
row,SMILES,inhibition of LPS induced PGHS-2 protein expression
1,"C[S+]([O-])c1ccc(-c2nc3n(c2-c2ccncc2)CCC3)cc1 (stereo not shown) [2-(4-Methylsulfinylphenyl)-3-(4-pyridyl)-6-7-dihydro-(5H)-pyrrolo[1,2-a]imidazole]",inactive
2,CC(Cc1ccc(O)c(O)c1)C(C)Cc1ccc(O)c(O)c1 (stereo not shown) [NDGA],inactive
3,COc1ccc(C2CNC(=O)C2)cc1OC1CCCC1 (stereo not shown) [rolipram],inactive
4,O=C1CCN(c2ccccc2)N1 [phenidone],inactive
